From patent US6107316A, “Method for treating protozoal infections” (priority 1998, dated 2000)
≈ marks a conversion by molar mass, not a printed value. Like-named read-outs stand apart in the source and are kept apart here. Blank lines part the entries; values can stand above or below the molecule they belong to.

Assays:
Giardia lamblia = test: in vitro growth inhibitory activity against Giardia lamblia; assay type: cell-based; settings: Giardia duodenalis; concentration required to inhibit growth by 50%
Procedure: 35, pp. 2198-2202 (1991). EC50 values for test compounds, expressed in parts per million (ppm), were calculated from dose response curves and are presented in Table 4. As used herein, the terminology "EC50" means the concentration of test compound required to inhibit growth by 50% are compared to a control lacking the test compound. Metronidazole was included as a standard in the tests for comparative purposes.

Leishmania major = test: in vitro growth inhibitory activity against L. major promastigotes; assay type: cell-based
Description: 35, pp. 2198-2202 (1991).

Tetrahymena pyriformis = test: in vitro growth inhibitory activity against the ciliate Tetrahymena pyriformis; assay type: cell-based, Tetrahymena pyriformis (ATCC strain 30005); settings: read-out: EC50 Tetrahymena pyriformis
Procedure: Compounds were evaluated for in vitro growth inhibitory activity against the ciliate Tetrahymena pyriformis, which was used as an indicator organism for the Apicomplexia since by several criteria the ciliates and Apicomplexa are closely related (Edlind T. D. et al., Mol. Phylogenet. Evol. vol. 5, pp. 359-367, 1996). T. pyriformis (ATCC strain 30005) was grown in 1 ml ATCC medium 357 at 25° C. in 4 ml polyallomer culture tubes without shaking. Compounds were dissolved in dimethylsufoxide (DMSO) and added to the cultures (containing 3,000 cells/ml) such that the final DMSO concentration was 0.1-0.3%. […] Parasitol. vol. 84, pp. 355-370, 1996) and Cryptosporidium parvum (Arrowood et al., FEMS Microbial. Lett., vol. 136, pp. 245-249, 1996) were tested for comparison.

Toxoplasma gondii [1] = test: growth inhibition of T. gondii in L929 host cells ([3H]-uracil incorporation); assay type: cell-based; settings: Toxoplasma gondii
Procedure: (§1) Compounds were tested for it vitro growth inhibitory activity against Toxoplasma gondii replication in L929 (L929-ATCC CCL 1, mouse connective tissue) or HFF (human foreskin fibroblast) host cells using the [^3 H]-uracil incorporation technique as follows. Host cells were grown in 96-well flat-bottom microtiter plates at 37° C in a 5% carbon dioxide environment in modified Eagle's medium containing penicillin, streptomycin and 10% fetal equine serum. Wells containing a homogeneous confluent monolayer of host cells were infected with T. gondii tachyzoites at a ratio of 3 parasites per cell (approximately 6×10^4 tachyzoites per well containing 100 μl of medium). […] Two hours post infection, the cultures were washed to remove free parasites and the various dilutions of test compound were added. Cells were subsequently collected at 24, 48 and 72 hours. Four hours prior to each harvesting 50 Al of [^3 H]-uracil (1 μCi) was added. Cells were collected using a cell harvester and incorporated radioactivity was measured using a scintillation counter. […]

Toxoplasma gondii [2] = test: growth inhibition of T. gondii in HFF host cells ([3H]-uracil incorporation); assay type: cell-based; settings: Toxoplasma gondii
Procedure: as §1

[3] = cytotoxicity towards L929 host cells (Cell Titer 96); settings: mouse, % Inhibition of host cell growth (values in parenthesis)
Procedure: (§2) Cytotoxicity of the test compounds towards host cells was determined using the Cell Titer 96™ it (Promega Corporation, Madison, Wis.) as follows. Cells were seeded at a concentration of 5×10^3 cells per well containing 100 μl of medium in 96-well flat-bottom microtiter plates and incubated at 37° C. in a 5% carbon dioxide environment for 4 hours. Dilutions of the test compounds prepared as described above were then added, and incubation continued for 24, 48 or 72 hours. Four hours before each of these time points the growth medium containing test compound was replaced with 100 μl of fresh medium followed by addition of 16 μl of the kit dye solution. After incubation at 37° C. for another 4 hours, 100 μl of the kit solubilization/stop solution was added to each well, the contents of the wells were mixed and the plates kept 1 hour at room temperature. The plates were then read spectrophotometrically in a plate reader at a wavelength of 570 nm. […] Atovaquone was included in the test as a standard.

[4] = cytotoxicity towards HFF host cells (Cell Titer 96); settings: human, % Inhibition of host cell growth (values in parenthesis)
Procedure: as §2

Cryptosporidium parvum = test: growth inhibitory activity against C. parvum in host MDBKF5D2 cells (immunofluorescence); assay type: cell-based; settings: Cryptosporidium parvum, 48 h
Procedure: Compounds were tested for in vitro growth inhibitory activity against C. parvum grown in host MDBKF5D2 cells and for toxicity towards the host cells as follows. […] To test for toxicity towards the host cells, the media containing test compound (200 μl) were introduced into two wells of a 96 well microtiter plate containing confluent MDBKF5D2 cell monolayers and two wells without monolayers, and incubated at 37° C. in an 8% carbon dioxide environment. After 48 hours, the tetrazolium salt MTS (Owen's solution) and phenazine methosulfate were added to each well at concentrations of 333 μg/ml and 25 μM, respectively. The plate was returned to the incubator in the dark to develop for 2 hours, then 100 μl of each supernatant was transferred to a new microtiter plate and read spectrophotometrically in a plate reader at a wavelength of 490 nm. Percent toxicity was calculated by subtracting the mean optical density (OD) of the drug supernatants from the OD of medium control supernatants (no drug), dividing by the OD of the medium control, and multiplying by 100. To test for growth inhibitory activity against C. parvum, 3×10^4 oocysts per well were incubated in mentioned concentrations of each drug at 37° C. (8% CO2) on confluent MDBKF5D2 cell monolayers in 96 well microtiter plates. After 48 hours, the level of infection in each well was determined by means of an immunofluorescence assay. Percent inhibition of growth was calculated by subtracting the mean parasite count in the wells containing test compound from the mean parasite count in the medium control wells (no test compound), dividing by the mean parasite count in the medium control wells, and multiplying by 100. Paromomycin was included in the test as a standard.

Entamoeba histolytica = test: in vitro growth inhibitory activity against E. histolytica; assay type: cell-based
Description: 35, pp. 2198-2202 (1991). Metronidazole was included as a standard in the test for comparative purposes.

EC50 (Giardia lamblia): 0.03 µg/mL (≈ 0.0881 µM)
EC50 (Leishmania major): 0.1 µg/mL (≈ 0.294 µM)
Structure (SMILES): CCC(C)(NC(=O)c1cc(Cl)c(F)c(Cl)c1)C(=O)CCl (stereo not shown) [Compound 9]
EC50 (Tetrahymena pyriformis; 24 hours, 25° C.): 0.004 µg/mL (≈ 0.0117 µM)
inhibition at 0.5 µg/mL (Toxoplasma gondii [1]; L929, 24 h, L929 host cells, 0.5 μg/ml, 24 hours, read-out: % Inhibition): 29%
inhibition at 5 µg/mL (Toxoplasma gondii [1]; L929, 24 h, L929 host cells, 5.0 μg/ml, 24 hours, read-out: % Inhibition): 28.2%
inhibition at 0.5 µg/mL (Toxoplasma gondii [1]; L929, 48 h, L929 host cells, 0.5 μg/ml, 48 hours, read-out: % Inhibition): 86.3%
inhibition at 5 µg/mL (Toxoplasma gondii [1]; L929, 48 h, L929 host cells, 5.0 μg/ml, 48 hours, read-out: % Inhibition): 77.3%
inhibition at 0.5 µg/mL (Toxoplasma gondii [1]; L929, 72 h, L929 host cells, 0.5 μg/ml, 72 hours, read-out: % Inhibition): 90.9%
inhibition at 5 µg/mL (Toxoplasma gondii [1]; L929, 72 h, L929 host cells, 5.0 μg/ml, 72 hours, read-out: % Inhibition): 95.6%
inhibition at 0.5 µg/mL (Toxoplasma gondii [2]; 24 h, HFF host cells, 0.5 μg/ml, 24 hours, read-out: % Inhibition): 58.7%
inhibition at 5 µg/mL (Toxoplasma gondii [2]; 24 h, HFF host cells, 5.0 μg/ml, 24 hours, read-out: % Inhibition): 74.3%
inhibition at 0.5 µg/mL (Toxoplasma gondii [2]; 48 h, HFF host cells, 0.5 μg/ml, 48 hours, read-out: % Inhibition): 77.6%
inhibition at 5 µg/mL (Toxoplasma gondii [2]; 48 h, HFF host cells, 5.0 μg/ml, 48 hours, read-out: % Inhibition): 97%
inhibition at 0.5 µg/mL (Toxoplasma gondii [2]; 72 h, HFF host cells, 0.5 μg/ml, 72 hours, read-out: % Inhibition): 0%
inhibition at 5 µg/mL (Toxoplasma gondii [2]; 72 h, HFF host cells, 5.0 μg/ml, 72 hours, read-out: % Inhibition): 96.3%
inhibition at 24 h ([3]; L929, 0.5 μg/ml): 6.3%
inhibition at 48 h ([3]; L929, 0.5 μg/ml): 0%
inhibition at 72 h ([3]; L929, 0.5 μg/ml): 8.5%
inhibition at 24 h ([3]; L929, 5.0 μg/ml): 20.2%
inhibition at 48 h ([3]; L929, 5.0 μg/ml): 65.2%
inhibition at 72 h ([3]; L929, 5.0 μg/ml): 90.4%
inhibition at 24 h ([4]; 0.5 μg/ml): 1.1%
inhibition at 48 h ([4]; 0.5 μg/ml): 1.1%
inhibition at 72 h ([4]; 0.5 μg/ml): 0%
inhibition at 24 h ([4]; 5.0 μg/ml): 2.4%
inhibition at 48 h ([4]; 5.0 μg/ml): 21.3%
inhibition at 72 h ([4]; 5.0 μg/ml): 6.3%
inhibition at 0.1 µM (Cryptosporidium parvum; 0.1 μM): 1.8%
inhibition at 1 µM (Cryptosporidium parvum; 1.0 μM): 27.9%
inhibition at 10 µM (Cryptosporidium parvum; 10 μM): 32.8%

Structure (SMILES): CCC(C)(NC(=O)c1cc(Cl)c(C)c(Cl)c1)C(=O)CCl (stereo not shown) [Compound 10]
EC50 (Giardia lamblia): 0.06 µg/mL (≈ 0.178 µM)
EC50 (Leishmania major): 0.2 µg/mL (≈ 0.594 µM)
EC50 (Entamoeba histolytica): 6 µg/mL (≈ 17.8 µM)
EC50 (Tetrahymena pyriformis; 24 h): 0.004 µg/mL (≈ 0.0119 µM)
inhibition at 0.5 µg/mL (Toxoplasma gondii [1]; L929, 24 h): 0%
inhibition at 5 µg/mL (Toxoplasma gondii [1]; L929, 24 h): 20.5%
inhibition at 25 µg/mL (Toxoplasma gondii [1]; L929, 24 h): 19.6%
inhibition at 0.5 µg/mL (Toxoplasma gondii [1]; L929, 48 h): 0%
inhibition at 5 µg/mL (Toxoplasma gondii [1]; L929, 48 h): 80.5%
inhibition at 25 µg/mL (Toxoplasma gondii [1]; L929, 48 h): 86.5%
inhibition at 0.5 µg/mL (Toxoplasma gondii [1]; L929, 72 h): 2.3%
inhibition at 5 µg/mL (Toxoplasma gondii [1]; L929, 72 h): 90.4%
inhibition at 25 µg/mL (Toxoplasma gondii [1]; L929, 72 h): 98%
inhibition at 0.5 µg/mL (Toxoplasma gondii [2]; 24 h): 2.3%
inhibition at 5 µg/mL (Toxoplasma gondii [2]; 24 h): 8.8%
inhibition at 25 µg/mL (Toxoplasma gondii [2]; 24 h): 63.4%
inhibition at 0.5 µg/mL (Toxoplasma gondii [2]; 48 h): 2.1%
inhibition at 5 µg/mL (Toxoplasma gondii [2]; 48 h): 1.4%
inhibition at 25 µg/mL (Toxoplasma gondii [2]; 48 h): 95.7%
inhibition at 0.5 µg/mL (Toxoplasma gondii [2]; 72 h): 6.3%
inhibition at 5 µg/mL (Toxoplasma gondii [2]; 72 h): 0%
inhibition at 25 µg/mL (Toxoplasma gondii [2]; 72 h): 97.3%
inhibition at 24 h ([3]; L929, 0.5 μg/ml): 3.7%
inhibition at 48 h ([3]; L929, 0.5 μg/ml): 0%
inhibition at 72 h ([3]; L929, 0.5 μg/ml): 2.2%
inhibition at 24 h ([3]; L929, 5.0 μg/ml): 2.8%
inhibition at 48 h ([3]; L929, 5.0 μg/ml): 0%
inhibition at 72 h ([3]; L929, 5.0 μg/ml): 3.5%
inhibition at 24 h ([3]; L929, 25.0 μg/ml): 2.2%
inhibition at 48 h ([3]; L929, 25.0 μg/ml): 4.5%
inhibition at 72 h ([3]; L929, 25.0 μg/ml): 7.6%
inhibition at 24 h ([4]; 0.5 μg/ml): 0%
inhibition at 48 h ([4]; 0.5 μg/ml): 0%
inhibition at 72 h ([4]; 0.5 μg/ml): 3%
inhibition at 24 h ([4]; 5.0 μg/ml): 1.4%
inhibition at 48 h ([4]; 5.0 μg/ml): 7.6%
inhibition at 72 h ([4]; 5.0 μg/ml): 3.5%
inhibition at 24 h ([4]; 25.0 μg/ml): 6.7%
inhibition at 48 h ([4]; 25.0 μg/ml): 9.3%
inhibition at 72 h ([4]; 25.0 μg/ml): 4.8%
